Laboratory results: patent US10045961B2, “Use of sting agonists to treat chronic hepatitis B virus infection” (DREXEL UNIVERSITY, priority 2013, dated 2018)
“Also recorded” adds a separate entry of the source.

Experiments:
[1] = tested on: HBV DNA replication in AML12HBV10 cells; test: Indirect treatment: conditioned media from treated RAW264.7 macrophages applied to AML12HBV10 cells, HBV core DNA by Southern blot; conditions: AML12HBV10 cells treated 2 days with 50% conditioned media from RAW264.7 cells treated 12 h
Protocol: (§4) The assay system was first validated with known TLR agonists. […] Twenty-four hours later, the cells were treated with the indicated concentrations of TLR agonists (direct treatment) (FIG. 1B). […] Cytoplasmic HBV core DNA was analyzed by Southern blot hybridization two days post treatment.
(§5) AMLHBV10 cells, grown in Dulbecco's Modification of Eagle's Medium (DMEM)/F12 medium with 1 μg/ml of tetracycline were seeded in 12-well plate at density of 1×10^5 cell/well for 1 day in absence of tetracycline to release HBV replication. […] HBV core DNA was extracted from AML12HBV10 cells 2 days post treatment, and detected by Southern blot assay.
Intracellular HBV RNA was determined by Northern blot (ribosomal RNA served as loading control). HBV core protein was determined by Western blot assay using antibody against carboxyl terminal 14 amino acid of HBV core protein (β-actin served as loading control). HBV nucleocapsids were examined by a particle gel assay to detect both the intact nucleocapsids and capsid-associated HBV DNA. Encapsidated HBV (core DNA) replication intermediates (RC, DSL and SS) were determined by Southern blot assay.
Using the assay system described above, 75 flavonoids in MicroSource compound collection (MicroSource Discovery Systems, Inc.) were tested again. […] Cytoplasmic HBV core DNA was analyzed by Southern blot hybridization. […] AML12HBV10 cells treated with the indicated concentrations of mouse alpha IFN (mIFN-α) for 2 days served as positive controls. Cytoplasmic HBV core DNA was analyzed by Southern blot hybridization (FIG. 3D).

[2] = tested on: HBV DNA replication in AML12HBV10 cells; test: Direct treatment of AML12HBV10 cells, cytoplasmic HBV core DNA by Southern blot; conditions: for HBV DNA replication, direct treatment: AML12HBV10 cells treated directly for 2 days, cytoplasmic HBV core DNA; for HBV DNA replication, cytokine treatment: AML12HBV10 cells treated for 4 days
Source text: AML12HBV10, an immortalized murine hepatocyte (AML12)-derived cell line supporting high level of HBV replication in a tetracycline (tet)-inducible manner, was maintained as described in Xu C, et al. Interferons accelerate decay of replication-competent nucleocapsids of hepatitis B virus.
HBV core DNA extraction from AML12HBV10 cells as well as analyses by Southern blot hybridization and real-time PCR assays were as described previously in Xu C, et al. Interferons accelerate decay of replication-competent nucleocapsids of hepatitis B virus. […] Total cellular RNA was extracted using TRIzol reagent (Invitrogen). HBV RNA was analyzed by Northern blot hybridization with an α-^32P-UTP-labeled full-length minus-stranded RNA probe. HBV capsid and capsid associated viral DNA was analyzed by a native agarose gel electrophoresis followed by transfer to a nitrocellulose membrane. HBV capsids were detected by probing the membrane with an antibody against HBV core protein followed by visualizing with LI-COR Odyssey system. Capsid-associated DNA was detected by hybridization with radioactively labeled HBV riboprobe.
as §4, §5
Cytoplasmic HBV core DNA was analyzed by Southern blot hybridization. NT controls were as described in FIG. 1B (FIG. 3B). […] AML12HBV10 cells treated with the indicated concentrations of mouse alpha IFN (mIFN-α) for 2 days served as positive controls. Cytoplasmic HBV core DNA was analyzed by Southern blot hybridization (FIG. 3D).

MAPK pathways = test: Western blot of MAPK pathway activation (phosphorylated p38α, JNK, ERK) in RAW264.7 cells; assay type: cell-based, mouse
Source text: (§1) Total cellular proteins were fractioned by SDS-PAGE and transferred onto PVDF membranes. Total and phosphorylated STING, TBK1, p38, JNK and Erk as well as IkB-α were detected by Western blot assays with their specific antibodies. β-actin served as a loading control.

TBK1 = test: Western blot of TBK1 phosphorylation in RAW264.7 cells; assay type: cell-based, mouse; conditions: 125 μM DMXAA
Source text: as §1

IκBα = test: Western blot of IκBα degradation in RAW264.7 cells; assay type: cell-based, mouse; conditions: 125 μM DMXAA
Source text: as §1

HBV = HBV DNA hydrodynamic mouse model, intrahepatic HBV core DNA; assay type: in vivo, NOD/SCID mice; conditions: single 25 mg/kg intraperitoneal dose, 24 h after treatment
Protocol: (§2) Ten-week-old female NOD/SCID mice were purchased from Vital River Laboratory Animal Technology Co. Ltd. All experiments were conducted with Institutional Animal Care and Use Committee approval. To establish HBV hydrodynamic model, 13.5 μg of plasmid pTmcsHBV1.3 expressing 1.3mer HBV genome and 4.5 μg of pCMV-SB expressing the Sleeping Beauty transposase were injected through tail vein, according to procedures previously described. To test the efficacy of DMXAA in vivo, 7 days post injection, mice were treated with either DMXAA (in PBS with 7.5% sodium Bicarbonate) at 25 mg/kg or vehicle, via intraperitoneal injection. Mice were sacrificed 24 h after treatment. Intrahepatic HBV core DNA was extracted and quantified by using a real-time PCR assay. Intrahepatic total RNA was extracted and the interferon stimulated genes (ISGs) OAS1b and viperin mRNAs were determined by real-time RT-PCR assay. Weight of individual mouse was monitored before and 24 h after the treatment.
(§3) To further validate the antiviral effects of DMXAA in vivo, NOD/SCID mice were hydrodynamically injected with HBV 1.3mer plasmid to establish HBV replication in hepatocytes. […] (FIG. 9A) Twenty-four hours post treatment, HBV core DNA was extracted from livers and analyzed by a real-time PCR assay. […] (FIGS. 9B and 9C) Total RNA was extracted from livers and mRNA levels of OAS1b and viperin were analyzed by real-time RT-PCR assay. […]

[3] = tested on: HBV DNA in AML12HBV10 cells; test: Blockade of type I IFN receptor (IFNAR1 antibody) in AML12HBV10 cells, HBV DNA by real-time PCR; assay type: cell-based, hepatitis B virus; conditions: AML12HBV10 cells pre-incubated with 10 μg/ml IFNAR1 antibody; mIFN-α directly or conditioned media from DMXAA-treated RAW264.7 cells
Protocol: AML12HBV10 cells cultured in absence of tetracycline for 1 day, were incubated either with or without 10 μg/ml of a monoclonal antibody against type I interferon receptor IFNAR1 (Ab INFAR) at 37° C. for 1 h, followed by treatment for 2 days with the indicated concentrations of mIFN-α (FIG. 7A) or 50% of conditioned media harvested from RAW264.7 cells (treated with the indicated concentrations of DMXAA for 12 h) (FIG. 7B). Cytolplasmic HBV DNA were quantified by a real-time PCR assay and data (mean±standard deviation, N=4) were presented as percentage of mock-treated controls (NT). AML12HBV10 cells cultured in the absence of tetracycline were treated with the indicated concentrations of IL-1, IL-6 or TNF-α for 4 days (FIG. 7C). Cytoplasmic HBV core DNA was analyzed by Southern blot hybridization.

[4] = tested on: HBV DNA in AML12HBV10 cells; test: Conditioned media from shSTING RAW264.7 cells on AML12HBV10 cells, HBV core DNA by real time PCR; assay type: cell-based, hepatitis B virus; conditions: 2 days
IFN-β mRNA = test: qRT-PCR of IFN-β mRNA in RAW264.7 cells
Protocol: (§6) For cytokine gene expression analysis, total RNA was extracted using TRIzol reagent. cDNAs were synthesized using SuperScript III (Invitrogen). Quantitative real-time PCR analysis was performed using a LightCycler 480 II (Roche).
(§7) The amounts of mRNA specifying the specific cytokines and chemokines were quantified by real-time RT-PCR assays. Data (mean±standard deviation, N=3) were expressed as fold induction of gene expression relative to untreated controls.

HBV capsids = test: HBV core protein, capsids and capsid-associated DNA in AML12HBV10 cells after indirect treatment; assay type: cell-based, hepatitis B virus; conditions: 2 days; for amount of HBV capsid protein: Western blot
Protocol: HBV core DNA extraction from AML12HBV10 cells as well as analyses by Southern blot hybridization and real-time PCR assays were as described previously in Xu C, et al. Interferons accelerate decay of replication-competent nucleocapsids of hepatitis B virus. J Virol 2010; 84:9332-40, and Campagna M R, et al. Sulfamoylbenzamide Derivatives Inhibit the Assembly of Hepatitis B Virus Nucleocapsids. J Virol 2013. Total cellular RNA was extracted using TRIzol reagent (Invitrogen). HBV RNA was analyzed by Northern blot hybridization with an α-^32P-UTP-labeled full-length minus-stranded RNA probe. HBV capsid and capsid associated viral DNA was analyzed by a native agarose gel electrophoresis followed by transfer to a nitrocellulose membrane. HBV capsids were detected by probing the membrane with an antibody against HBV core protein followed by visualizing with LI-COR Odyssey system. Capsid-associated DNA was detected by hybridization with radioactively labeled HBV riboprobe.
In order to map the HBV replication step(s) being inhibited by DMXAA-induced antiviral response in macrophages, AML12HBV10 cells were treated with conditioned media harvested from TLR agonist- or DMXAA-treated RAW264.7 cells. […]. The AML12HBV10 cells were harvested 2 days after treatment for the following analysis: (FIG. 4A) Intracellular HBV RNA was determined by Northern blot (pgRNA, pre-genomic RNA, envRNAs, viral mRNAs specifying envelope proteins. 18S ribosomal RNA (rRNA) served as loading controls); (FIG. 4B) HBV core protein was determined by Western blot assay using total cell lysate (β-actin served as a loading control); the amounts of HBV capsids (FIG. 4C) and capsid-associated HBV DNA (FIG. 4D) were determined by a native agarose gel assay; and (FIG. 4E) Cytoplasmic HBV core DNA was determined by Southern blot hybridization.

[5] = HBV hydrodynamic mouse model, body weight; assay type: in vivo, NOD/SCID mice; conditions: single 25 mg/kg intraperitoneal dose, 24 h; data not shown
Protocol: as §2

[6] = tested on: interferon stimulated genes (ISGs) OAS1b and viperin; test: HBV hydrodynamic mouse model, intrahepatic ISG mRNA (OAS1b, viperin); assay type: in vivo, NOD/SCID mice; conditions: single 25 mg/kg intraperitoneal dose, 24 h
Protocol: as §2, §3

[7] = tested on: HBV replication in human hepatoma cells (HepDES19); test: Conditioned medium from DMXAA-treated THP-1hSTINGS162 cells on DES19 human hepatoma cells, HBV core DNA by real time PCR; conditions: media from THP1-hSTING/S162 cells treated 12 hrs, 6 days
Protocol: Additionally, THP-1hSTINGS162 cells were treated with DMXAA for 12 hrs, conditioned medium with indicated dilution were then transferred to DES19, a human hepatoma cell line harboring HBV replication. HBV core DNA was extracted 6 days post treatment, and quantified by real time PCR assay. HBV DNA expression levels (means±standard deviations, N=3) were expressed as percentage relative to mock treated control. DES19 cells treated with IFN-α served as positive control (FIG. 10B).

[8] = tested on: proinflammatory cytokines (IL6, IL1, IL10, TNF-α, IL12) and chemokine CXCL10; test: qRT-PCR of proinflammatory cytokine and chemokine mRNA in RAW264.7 cells
Protocol: as §6, §7

In the case of O=c1cc(-c2ccccc2O)oc2cc(O)ccc12 [7, 2′-dihydroxyflavone], the “HBV DNA replication, indirect treatment” value [1] is reported as “indirect, but not direct, antiviral activity against HBV”, the “HBV DNA replication, indirect treatment” value ([1]; listed as 7, 2′ dihydroxyflavone) is reported as “induces antiviral activity against HBV” and the “HBV DNA replication, direct treatment” value [2] is reported as “not direct”.

In the case of Cc1ccc2c(=O)c3cccc(CC(=O)O)c3oc2c1C [DMXAA, 5,6-dimethylxanthenone-4-acetic acid], the “time at which activation of MAPK pathways (phosphorylated p38α, JNK, ERK) was evident” value (MAPK pathways) is reported as 90 min, the “phosphorylation of TBK1” value (TBK1) is reported as “efficiently induced phosphorylation of TBK1” and the “degradation of IκBα” value (IκBα) is reported as “induced degradation of IκBα”. For the same molecule, the “HBV DNA replication, indirect treatment” value [1] was “strong indirect anti-HBV activity; also recorded: inhibits HBV DNA replication in the mouse hepatocytes in a dose-dependent manner”, the “reduction of intrahepatic HBV core DNA versus vehicle” value (HBV) was 1.3 log and the “antiviral response after blockade of type I IFN receptor” value [3] was “significantly attenuated”. The “antiviral activity against HBV with STING knockdown cells” value [4] was “significantly attenuated”, the “time of peak of IFN-β response” value (IFN-β mRNA) was 2 h and the “IFN-β mRNA expression relative to TLR1/2, TLR3 or TLR7 agonists” value (IFN-β mRNA; 125 μM, 2 h post treatment) was “approximately 100 fold”. For the same molecule, the “amounts of HBV DNA replication intermediates” value (HBV capsids) was “decreased”, the “amount of HBV capsid protein” value (HBV capsids) was “reduced the amounts of HBV capsid protein” and the “reduction of average body weight” value [5] was “approximately 8%”. The “OAS1b expression in liver” value [6] was “significantly induced”, the “viperin expression in liver” value [6] was “significantly induced” and the “HBV replication in human hepatoma cells, conditioned media” value [7] was “efficiently suppressed HBV replication”. For the same molecule, the “time of peak of inflammatory cytokine response (IL-1 and IL-10)” value [8] was ≥ 6 h, the “IFN and inflammatory cytokine response profile” value ([8]; qRT-PCR, DMXAA compared with TLR agonists) was “predominant IFN response, but less vigorous inflammatory cytokine response” and the “HBV DNA replication, direct treatment” value [2] was “does not inhibit HBV DNA replication”.

In the case of CCNCc1nc2c(N)nc3ccccc3c2n1CC(C)(C)O [gardiquimod], the “HBV DNA replication, indirect treatment” value [1] is reported as “potently inhibited HBV DNA replication” and the “HBV DNA replication, direct treatment” value [2] is reported as “did not apparently inhibit HBV DNA replication”.

For CCN(CC)CCOc1ccc2c(c1)C(=O)c1cc(OCCN(CC)CC)ccc1-2 [tilorine, 2,7-Bis[2-(diethylamino)ethoxy]-9-fluorenone], the “HBV DNA replication, indirect treatment” value [1] was “neither directly nor indirectly inhibited HBV replication” and the “HBV DNA replication, direct treatment” value [2] was “neither directly nor indirectly inhibited HBV replication”.

In the case of IFN-α, the “antiviral response after blockade of type I IFN receptor” value [3] is reported as “significantly reduced”.

In the case of Pam3CSK4, the “HBV DNA replication, indirect treatment” value [1] is reported as “potently inhibited HBV DNA replication”, the “amount of HBV capsid protein” value (HBV capsids) is reported as “to lesser extents” and the “HBV DNA replication, direct treatment” value [2] is reported as “did not apparently inhibit HBV DNA replication”.

In the case of TNF-α, the “HBV DNA replication, cytokine treatment” value [2] is reported as “inhibited HBV DNA replication”.

With poly I:C the “HBV DNA replication, indirect treatment” value [1] was “potently inhibited HBV DNA replication”, the “amount of HBV capsid protein” value (HBV capsids) was “to lesser extents” and the “HBV DNA replication, direct treatment” value [2] was “did not apparently inhibit HBV DNA replication”.

B1: IL-6: Recombinant murine IL-6 from PBL InterferonSource (protein, UniProt P08505 25-211, looked up)
Interleukin-6: FPTSQVRRGDFTEDTTPNRPVYTTSQVGGLITHVLWEIVEMRKELCNGNSDCMNNDDALAENNLKLPEIQRNDGCYQTGYNQEICLLKISSGLLEYHSYLEYMKNNLKDNKKDKARVLQRDTETLIHIFNQEVKDLHKIVLPTPISNALLTDKLESQKEWLRTKTIQFILKSLEEFLKVTLRSTRQT
With B1 the “HBV DNA replication, cytokine treatment” value [2] was “only TNF-α inhibited HBV DNA replication”.
